# Reference: patent publication US12393007B2, “Method for adapting optical properties of an immersion mixture, and immersion mixtures and components thereof” (Carl Zeiss Microscopy GmbH, priority 2018, dated 2025)
# Counter-ions that a name gives are not always drawn. Like-named read-outs stand apart in the source and are kept apart here.
# Columns and labels:
# [1] = Refractive index ne at 23° C., reference wavelength 546.1 nm; type: physicochemical
# [2] = source Merck; cited from earlier work
# [3] = pure substance, 23° C., 546.1 nm
"ne (refractive index) of the substance [1, 3]",Compound,further results
1.4200,CCOC(=O)CCC(=O)OCC [diethyl succinate],–
1.4161,CC(=O)OCCOC(C)=O [ethylene glycol diacetate],–
1.4414,CCOC(=O)/C=C\C(=O)OCC [diethyl maleate],–
1.4435,COC(=O)/C=C\C(=O)OC [dimethyl maleate],–
1.4289,COC(=O)CCCCC(=O)OC [dimethyl adipate],–
1.4126,CCOCCOCCOCC [diethylene glycol diethyl ether],–
1.4449,CCCCC(CC)C(=O)OCCOCCOCCOC(=O)C(CC)CCCC (centres unmarked) [triethylene glycol bis(2-ethylhexanoate)],–
1.4431,CCOC(=O)CC(O)(CC(=O)OCC)C(=O)OCC [triethyl citrate],–

# More lines, now with the values behind:
Compound,"ne (refractive index) of the substance [1, 3]",further results
tetrahydrofurfuryl alcohol polyethylene glycol ether,–,ne (refractive index) of the substance [1]: 1.4621
N#C[S-].[Na+] [sodium thiocyanate],–,ne (refractive index) of aqueous solution 200 g/L [1]: 1.3765
O.O.[Na+].[Na+].[O]=[W](=[O])([O-])[O-] [sodium tungstate dihydrate],–,solubility in water (20° C.) [2]: 730 g/L; ne (refractive index) of aqueous solution 200 g/L [1]: 1.3531
dimethyl propylene urea,–,ne (refractive index) of the substance [1]: 1.4909
O.O.[Na+].[Na+].[O]=[Mo](=[O])([O-])[O-] [sodium molybdate dihydrate],–,solubility in water (20° C.) [2]: 840 g/L
"CCCC(O)C(CC)CO (centres unmarked) [2-ethylhexane-1,3-diol]",1.4518,–
bis(hydroxymethyl)perfluoropolyether [Cheminox OXF-3PO-OH],1.3220,–
O.O.O.O.O.O.O.O=S(=O)([O-])[O-].[Mg+2] [magnesium sulfate heptahydrate],–,ne (refractive index) of aqueous solution 200 g/L [1]: 1.3529
"CC(=O)CC(C)(C)O [diacetone alcohol, 4-hydroxy-4-methyl-2-pentanone]",1.4244,–
CCCCC(CC)COC(=O)CCCCCCCCC(=O)OCC(CC)CCCC (centres unmarked) [bis (2-ethylhexyl) sebacate],1.4511,–
"OCC(F)(OC(F)(F)C(F)(OC(F)(F)C(F)(F)C(F)(F)F)C(F)(F)F)C(F)(F)F (centres unmarked) [Cheminox PO-3-OH, 2,3,3,3-tetrafluoro-2-[1,1,2,3,3,3-hexafluoro-2-(heptafluoropropoxy)propoxy]-1-propanol]",–,ne (refractive index) of the substance [1]: 1.2944
O=C([O-])c1ccccc1O.[Na+] [sodium salicylate],–,ne (refractive index) of aqueous solution 200 g/L [1]: 1.3747
CCOC(=O)/C=C/C(=O)OCC [diethyl fumarate],1.4419,–
ammonium sulfate,–,ne (refractive index) of aqueous solution 200 g/L [1]: 1.3629
